# Results taken from patent US12285012B2, “Compositions comprising pyridine carboxylate herbicides with acetolactate synthase (ALS) inhibitor herbicides” (Corteva Agriscience LLC, priority 2018, dated 2025).
# Read-outs that look alike come from different tables or passages of the source.
# Columns and labels:
# spring barley (HORVS) = format: in vivo, Hordeum vulgare
# Procedure: (§1) The plants were grown for 7-36 days (d) in a greenhouse with an approximate 14-hour (h) photo-period which was maintained at about 23° C. during the day and 22° C. during the night. Nutrients and water were added on a regular basis and supplemental lighting was provided with overhead metal halide 1000-Watt lamps as necessary. The plants were employed for testing when they reached the second or third true leaf stage.
# (§2) The emulsifiable concentrates also included a safener, cloquintocet-mexyl, at 120 grams active ingredient per liter (g ai/L), unless otherwise noted below.
# (§3) Control plants were sprayed in the same manner with the solvent blank. All pyridine carboxylate herbicide (component a) application rates are given as “g ae/ha” and all ALS inhibitor (component b) application rates are given as “g ai/ha.”
# (§4) The treated plants and control plants were placed in a greenhouse as described above and watered by sub-irrigation to prevent wash-off of the test compounds. After 20-22 d, the condition of the test plants as compared with that of the control plants was determined visually and scored on a scale of 0 to 100 percent where 0 corresponds to no injury and 100 corresponds to complete kill.
# [1] = system: kochia (KCHSC, Kochia scoparia); experiment: Greenhouse postemergence herbicidal effect; format: in vivo
# Procedure: (§5) Seeds of the desired test plant species were planted in a 90:10% v/v (volume/volume) mixture of PRO-MIX® BX (Premier Tech Horticulture, Quakertown, PA, USA) and PROFILE® GREENS GRADE™ (Profile Products LLC, Buffalo Grove, IL, USA) planting mixture, which typically has a pH of 5.2 to 6.2 and an organic matter content of at least 50 percent, in plastic pots with a surface area of 103.2 square centimeters (cm^2). […] The plants were grown for 7-36 days (d) in a greenhouse with an approximate 14-hour (h) photo-period which was maintained at about 23° C. during the day and 22° C. during the night. Nutrients and water were added on a regular basis and supplemental lighting was provided with overhead metal halide 1000-Watt lamps as necessary. The plants were employed for testing when they reached the second or third true leaf stage.
# (§6) Emulsifiable concentrates of each of each pyridine carboxylate herbicide (Compound A or Compound B) were prepared at 100 grams acid equivalent per liter (g ae/L). The emulsifiable concentrates also included a safener, cloquintocet-mexyl, at 120 grams active ingredient per liter (g ai/L), unless otherwise noted below. An aliquot of each emulsifiable concentrate was placed in a 25 mL glass vial and diluted with an aqueous mixture of 1.25% (v/v) ACTIROB® B esterified rapeseed oil (Bayer Crop Science, Research Triangle Park, NC, USA) or MSO® Concentrate with LECI-TECH® methylated soybean oil (Loveland Products, Loveland, CO, USA) to obtain concentrated stock solutions at the highest application rate for each herbicide, based upon a 12 milliliter (mL) application volume at a rate of 187 liters per hectare (L/ha). The concentrated stock solutions were further diluted with an aqueous mixture of 1.25% v/v ACTIROB® B or MSO® Concentrate with LECI-TECH® to obtain stock solutions at reduced application rates for each herbicide. Spray solutions of the herbicide combinations (Compound A or Compound B plus ALS herbicide) were prepared by adding weighed amounts or aliquots of the ALS herbicides to the stock solutions of Compound A or Compound B to form 12-mL spray solutions in two- or three-way combinations.
# (§7) The spray solutions were applied to the plant material with an overhead Mandel track sprayer equipped with 8002E nozzles calibrated to deliver 187 L/ha over an application area of 0.503 square meters (m^2) at a spray height of 18 inches (43 centimeters (cm)) above the average plant canopy. Control plants were sprayed in the same manner with the solvent blank. All pyridine carboxylate herbicide (component a) application rates are given as “g ae/ha” and all ALS inhibitor (component b) application rates are given as “g ai/ha.”
# as §4
# [2] = system: common lambsquarters (CHEAL, Chenopodium album L.); experiment: Greenhouse postemergence herbicidal effect; format: in vivo; details: for % visual injury, Obs / Obs % visual injury: CHEAL
# Procedure: as §5, §6, §7, §4
# [3] = system: wild buckwheat (POLCO, Polygonum convolvulus); experiment: Greenhouse postemergence herbicidal effect; format: in vivo
# Procedure: as §1, §2, §3, §4
# [4] = system: winter rape (BRSNW, Brassica napus); experiment: Greenhouse postemergence herbicidal effect; format: in vivo
# Procedure: as §1, §2, §3, §4
# [5] = system: pigweed (AMARE, Amaranthus retroflexus); experiment: Greenhouse postemergence herbicidal effect; format: in vivo
# Procedure: as §1, §2, §3, §4
# [6] = system: wild mustard (SINAR, Sinapis arvensis); experiment: Greenhouse postemergence herbicidal effect; format: in vivo
# Procedure: as §1, §2, §3, §4
# [7] = system: wild chamomile (MATCH, Matricaria chamomilla); experiment: Greenhouse postemergence herbicidal effect; format: in vivo
# Procedure: as §1, §2, §3, §4
# [8] = system: Canadian thistle (CIRAR, Cirsium arvense); experiment: Greenhouse postemergence herbicidal effect; format: in vivo
# Procedure: as §1, §2, §3, §4
# spring wheat (TRZAS) = format: in vivo, Triticum aestivum
# Procedure: as §1, §2, §3, §4
# [9] = system: Russian thistle (SASKR, Salsola kali); experiment: Greenhouse postemergence herbicidal effect; format: in vivo; details: Imazamethabenz 100 g/ha
# Procedure: as §1, §2, §3, §4
compound,measurement,setting,value
iodosulfuron,"% visual injury, Obs","spring barley (HORVS); HORVS, Iodosulfuron 33.75 g/ha",0%
same,"% visual injury, Obs","[1]; KCHSC, Iodosulfuron 33.75 g/ha",70%
same,"% visual injury, Obs",[2]; Iodosulfuron 33.75 g/ha,90%
same,"% visual injury, Obs","[3]; POLCO, Iodosulfuron 33.75 g/ha",85%
same,"% visual injury, Obs","[4]; BRSNW, Iodosulfuron 33.75 g/ha",98%
same,"% visual injury, Obs","[5]; AMARE, Iodosulfuron 33.75 g/ha",98%
same,"% visual injury, Obs","[6]; SINAR, Iodosulfuron 33.75 g/ha",100%
same,"% visual injury, Obs","[7]; MATCH, Iodosulfuron 33.75 g/ha",85%
same,"% visual injury, Obs","[8]; CIRAR, Iodosulfuron 33.75 g/ha",85%
same,"% visual injury, Obs","spring wheat (TRZAS); TRZAS, Iodosulfuron 33.75 g/ha",0%
imazamethabenz,Obs % visual injury,"spring barley (HORVS); HORVS, Imazamethabenz 100 g/ha",0%
same,Obs % visual injury,"spring barley (HORVS); HORVS, Imazamethabenz 200 g/ha",0%
same,% visual injury,spring barley (HORVS); Imazamethabenz 100 g/ha,0%
same,% visual injury,[1]; Imazamethabenz 100 g/ha,0%
same,Obs % visual injury,"[1]; KCHSC, Imazamethabenz 200 g/ha",0%
same,Obs % visual injury,[2]; Imazamethabenz 100 g/ha,0%
same,Obs % visual injury,[2]; Imazamethabenz 200 g/ha,0%
same,% visual injury,[2]; Imazamethabenz 100 g/ha,0%
same,% visual injury,[9],0%
same,Obs % visual injury,[9]; SASKR,13%
same,% visual injury,[3]; Imazamethabenz 100 g/ha,70%
same,Obs % visual injury,"[3]; POLCO, Imazamethabenz 200 g/ha",88%
same,Obs % visual injury,"[4]; BRSNW, Imazamethabenz 200 g/ha",53%
same,% visual injury,[4]; Imazamethabenz 100 g/ha,35%
same,Obs % visual injury,"[5]; AMARE, Imazamethabenz 200 g/ha",5%
same,% visual injury,[5]; Imazamethabenz 100 g/ha,0%
same,% visual injury,[6]; Imazamethabenz 100 g/ha,68%
same,Obs % visual injury,"[6]; SINAR, Imazamethabenz 200 g/ha",75%
same,% visual injury,[7]; Imazamethabenz 100 g/ha,0%
same,Obs % visual injury,"[7]; MATCH, Imazamethabenz 200 g/ha",5%
same,Obs % visual injury,"[8]; CIRAR, Imazamethabenz 100 g/ha",5%
same,Obs % visual injury,"[8]; CIRAR, Imazamethabenz 200 g/ha",5%
same,% visual injury,[8]; Imazamethabenz 100 g/ha,0%
same,% visual injury,spring wheat (TRZAS); Imazamethabenz 100 g/ha,0%
same,Obs % visual injury,"spring wheat (TRZAS); TRZAS, Imazamethabenz 100 g/ha",0%
same,Obs % visual injury,"spring wheat (TRZAS); TRZAS, Imazamethabenz 200 g/ha",0%
COc1cc(OC)nc(Oc2cccc(Oc3nc(OC)cc(OC)n3)c2C(=O)O)n1 [Bispyrabac],% visual injury Obs,spring barley (HORVS); Bispyrabac 20 g/ha,13%
same,% visual injury Obs,[1]; Bispyrabac 20 g/ha,10%
same,% visual injury Obs,[2]; Bispyrabac 20 g/ha,0%
same,% visual injury Obs,[3]; Bispyrabac 20 g/ha,96%
same,% visual injury Obs,[4]; Bispyrabac 20 g/ha,100%
same,% visual injury Obs,[5]; Bispyrabac 20 g/ha,100%
same,% visual injury Obs,[6]; Bispyrabac 20 g/ha,96%
same,% visual injury Obs,[7]; Bispyrabac 20 g/ha,23%
same,% visual injury Obs,[8]; Bispyrabac 20 g/ha,68%
same,% visual injury Obs,spring wheat (TRZAS); Bispyrabac 20 g/ha,0%
"COc1nn(C(=O)NS(=O)(=O)c2ccccc2OC(F)(F)F)c(=O)n1C [Flucarbazone, flucarbazone]",pest or weed control at 30 g/ha,"[1]; Bassia scoparia, post-emergence, KCHSC, Flurcarbazone 30 g/ha, read-out: % visual injury, Obs",25%
same,"% visual injury, Obs",[2]; Flurcarbazone 30 g/ha,10%
same,"% visual injury, Obs","[3]; POLCO, Flurcarbazone 30 g/ha",88%
same,"% visual injury, Obs","[4]; BRSNW, Flurcarbazone 30 g/ha",83%
same,"% visual injury, Obs","[5]; AMARE, Flurcarbazone 30 g/ha",98%
same,"% visual injury, Obs","[6]; SINAR, Flurcarbazone 30 g/ha",88%
same,"% visual injury, Obs","[7]; MATCH, Flurcarbazone 30 g/ha",18%
same,pest or weed control at 30 g/ha,"[8]; Cirsium arvense, post-emergence, CIRAR, Flurcarbazone 30 g/ha, read-out: % visual injury, Obs",28%
"COc1nc(C)nc(N(C)C(=O)NS(=O)(=O)c2ccccc2C(=O)O)n1 [Tribenuron, tribenuron]","% visual injury, Obs","[1]; KCHSC, Tribenuron 15 g/ha",50%
same,"% visual injury, Obs",[2]; Tribenuron 15 g/ha,96%
same,"% visual injury, Obs","[3]; POLCO, Tribenuron 15 g/ha",78%
same,"% visual injury, Obs","[4]; BRSNW, Tribenuron 15 g/ha",99%
same,"% visual injury, Obs","[5]; AMARE, Tribenuron 15 g/ha",100%
same,"% visual injury, Obs","[6]; SINAR, Tribenuron 15 g/ha",95%
same,"% visual injury, Obs","[7]; MATCH, Tribenuron 15 g/ha",87%
same,"% visual injury, Obs","[8]; CIRAR, Tribenuron 15 g/ha",89%
